Laboratory results taken from patent EP3083561B1, “HETEROARYL LINKED QUINOLINYL MODULATORS OF RORYT” (Janssen Pharmaceutica NV, priority 2013, dated 2015).
Structures can show the parent of a compound that is named as a salt.

Assays:
[1] = system: IL-17 production by CD4 T cells; assay: Human Th17 assay (IL-17 production by CD4 T cells); assay type: cell-based; conditions: CD4+ T cells from healthy donors, Th17 differentiation, 3 days
Description: The human Th17 assay tests the effect of RORγt modulatory compounds on IL-17 production by CD4 T cells under conditions which favor Th17 differentiation. Total CD4^+ T cells were isolated from the peripheral blood mononuclear cells (PBMC) of healthy donors using a CD4^+ T cell isolation kit II, following the manufacturer's instructions (Miltenyi Biotec). Cells were resuspended in a medium of RPMI-1640 supplemented with 10% fetal bovine serum, penicillin, streptomycin, […], and β-mercaptoethanol and were added to 96-well plates at 1.5x10^5 per 100 µL per well. 50 µL of compound at titrated concentrations in DMSO were added into each well at final DMSO concentration at 0.2%. Cells were incubated for 1 hour, then 50 µL of Th17 cell differentiation medium was added to each well. The final concentrations of antibodies and cytokines (R&D Systems) in differentiation medium were: 3x10^6/mL anti-CD3/CD28 beads (prepared using human T cell activation/expansion kit, Miltenyi Biotec), 10 µg/mL anti-IL4, 10 µg/mL anti-IFNγ, 10 ng/mL IL1β, 10 ng/mL IL23, 50 ng/mL IL6, 3 ng/mL TGFβ and 20 U/mL IL2. Cells were cultured at 37 °C and 5% CO2 for 3 days. Supernatants were collected and the accumulated IL-17 in culture was measured by using MULTI-SPOT® Cytokine Plate following manufacture's instruction (Meso Scale Discovery). The plate was read using Sector Imager 6000, and IL-17 concentration was extrapolated from the standard curve. The IC50s were determined by GraphPad.

[2] = biological target: T1, human RORγt ligand binding domain (RORγt LBD) (Homo sapiens, UniProt P51449); assay: RORγt ThermoFluor assay (thermal shift binding affinity); conditions: 0.065 mg/mL RORγt, pH 7.0; estimated from thermal shift
T1 construct: made in house; host or cells: E. coli (pHIS1, modified pET vector)
T1 sequence (P51449 258-518): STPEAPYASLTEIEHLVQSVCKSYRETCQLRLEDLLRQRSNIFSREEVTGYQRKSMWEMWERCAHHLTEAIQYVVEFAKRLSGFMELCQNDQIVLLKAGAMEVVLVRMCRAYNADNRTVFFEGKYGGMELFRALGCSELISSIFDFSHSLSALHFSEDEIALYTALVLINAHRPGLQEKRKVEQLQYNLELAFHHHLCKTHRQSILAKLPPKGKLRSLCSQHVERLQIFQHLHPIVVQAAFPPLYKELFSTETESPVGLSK
Experimental: This approach is applicable to a wide variety of systems, and rigorous in theoretical interpretation through quantitation of equilibrium binding constants (KD).
The shift in the melting point described as a ΔTm is proportional to the concentration and affinity of the ligand. The compound potency may be compared as a rank order of either ΔTm values at a single compound concentration or in terms of KD values, estimated from concentration response curves.
ThermoFluor® experiments were carried out using instruments owned by Janssen Research and Discovery, L.L.C. through its acquisition of 3-Dimensional Pharmaceuticals, Inc. 1,8-ANS (Invitrogen) was used as a fluorescent dye. Protein and compound solutions are dispensed into black 384-well polypropylene PCR microplates (Abgene) and overlayed with silicone oil (1 µL, Fluka, type DC 200) to prevent evaporation.
Bar-coded assay plates are robotically loaded onto a thermostatically controlled PCR-type thermal block and then heated at a typical ramp-rate of 1 °C/min for all experiments. Fluorescence was measured by continuous illumination with UV light (Hamamatsu LC6) supplied via fiber optic and filtered through a band-pass filter (380-400 nm; >6 OD cutoff). Fluorescence emission of the entire 384-well plate was detected by measuring light intensity using a CCD camera (Sensys, Roper Scientific) filtered to detect 500 ± 25 nm, resulting in simultaneous and independent readings of all 384 wells. Images were collected at each temperature, and the sum of the pixel intensity in a given area of the assay plate was recorded versus temperature. Reference wells contained RORγt without compounds, and the assay conditions were as follows: • 0.065 mg/mL RORyt • 60 µM 1,8-ANS • 100 mM Hepes, pH 7.0 • 10 mM NaCl • 2.5 mM GSH • 0.002% Tween-20
Project compounds were arranged in a pre-dosed mother plate (Greiner Bio-one) wherein compounds are serially diluted in 100% DMSO by 1:2 from a high concentration of 10 mM over 12 columns within a series (column 12 is a reference well containing DMSO, no compound). The compounds were robotically dispensed directly into assay plates (1x = 46 nL) using a Hummingbird capillary liquid handling instrument (Digilab). Following compound dispense, protein and dye in buffer was added to achieve the final assay volume of 3 µL, followed by 1 µL of silicone oil.

human RORγt LBD = biological target: T2, human RORγt LBD (Homo sapiens, UniProt P51449); assay: RORγt reporter assay (GAL4-RORγt LBD luciferase in HEK293T cells); assay type: cell-based; conditions: for IC50: 24 hours compound treatment; for inhibition at 6 µM: HEK-293T
T2 construct: expressed in transfected cells
T2 sequence (P51449 258-518): T1 sequence (P51449 258-518)
Description: A reporter assay was used to test functional activity of RORγt modulatory compounds on transcriptional activation driven by the RORγt LBD. Cells used in the assay were co-transfected with two constructs. The first construct, pBIND-RORγt LBD, contained the wild type human RORγt LBD fused to the DNA binding domain of the GAL4 protein. The second construct, pGL4.31 (Promega Cat no. C935A), contained multiple GAL4 responsive DNA elements upstream of firefly luciferase. […] The mutant construct was called pBIND-RORγt-AF2.
The pBIND vector contains the GAL4 DNA Binding Domain (GAL4 DBD) and the renilla luciferase gene under control of the SV40 promoter. Renilla luciferase expression serves as a control for transfection efficiency and cell viability.
The reporter assay was performed by transiently transfecting HEK293T cells with 5 µg of pBIND-RORγt LBD or pBIND-RORγt LBD-AF2 and 5 µg pGL4.31 (Promega Cat no. C935A) using Fugene 6 (Invitrogen Cat no. E2691) at a 1:6 ratio of DNA: Fugene 6 in a T-75 flask in which cells were at least 80% confluent. Twenty four hours after bulk transfection, cells were plated into 96-well plates at 50,000 cells/well in phenol-red free DMEM containing 5% Lipid Reduced FCS and Pen/Strep. Six hours after plating, cells were treated with compounds for 24 hours. Media was removed and cells were lysed with 50 µL 1x Glo Lysis Buffer (Promega). Dual Glo Luciferase Reagent (50 µL/well) was then added and firefly luciferase luminescence was read on an Envision after a ten minute incubation. Finally, Stop and Glo reagent (50 µL/well) was added and renilla luciferase luminescence was read on an Envision after a ten minute incubation. To calculate the effect of compounds on RORγt activity, the ratio of firefly to renilla luciferase was determined and plotted against compound concentration. Agonist compounds increase RORγt-driven luciferase expression, and antagonist or inverse agonist compounds decrease luciferase expression.

Compound	Kd [2] [nM]	IC50 (human RORγt LBD) [nM]	inhibition at 6 µM (human RORγt LBD) [%]	IC50 ([1]; Homo sapiens, CD4+ T, 72 h) [nM]	IC50 ([1]; Homo sapiens, 72 h) [nM]	IC50 [1] [nM]
Cn1cncc1C(O)(c1ccc(C(F)(F)F)nc1)c1ccc2nc(N3CCCC3)c(Oc3ccc(C#N)cc3)c(Cl)c2c1 (racemic) [Example 2a, 4-((4-Chloro-6-(hydroxy(1-methyl-1H-imidazol-5-yl)(6-(trifluoromethyl)pyridin-3-yl)methyl)-2-(pyrrolidin-1-yl)quinolin-3-yl)oxy)benzonitrile]	–	–	–	88	–	–
Cn1cncc1C(O)(c1ccc(Cl)cc1)c1ccc2nc(N3CCC3=O)c(Oc3ccc(C#N)cc3)c(Cl)c2c1 (stereo not shown) [Example 1, 4-((4-chloro-6-((4-chlorophenyl)(hydroxy)(1-methyl-1H-imidazol-5-yl)methyl)-2-(2-oxoazetidin-1-yl)quinofin-3-yl)oxy)benzonitrile · TFA]	58	180	101	–	300	–
Cn1cncc1C(O)(c1ccc(C(F)(F)F)nc1)c1ccc2nc(N3CCCC3)c(Oc3ccc(C#N)cc3)c(Cl)c2c1 (stereo not shown) [Example 2b]	–	–	–	–	–	320
Cn1cncc1C(O)(c1ccc(C(F)(F)F)nc1)c1ccc2nc(N3CCCC3)c(Oc3ccc(C#N)cc3)c(Cl)c2c1 (stereo not shown) [Example 2c]	–	–	–	–	–	100
CC(C)OC1CN(c2nc3ccc(C(O)(c4ccc(C(F)(F)F)nc4)c4cncn4C)cc3c(Cl)c2Oc2ccc(Cl)cc2)C1 (stereo not shown) [Example 6, (4-Chloro-3-(4-chlorophenoxy)-2-(3-isopropoxyazetidin-1-yl)quinolin-6-yl)(1-methyl-1H-imidazol-5-yl)(6-(trifluoromethyl)pyridin-3-yl)methanol]	11000	> 6000	41	–	–	–
CC(C)(C)OC(=O)N(c1ccccc1)c1c(Cl)nc2ccc(C(O)(c3cccnc3)c3cccc(Cl)c3)cc2c1Cl (stereo not shown) [Example 7, tert-Butyl (2,4-dichloro-6-((3-chlorophenyl)(hydroxy)(pyridin-3-yl)methyl)quinolin-3-yl)(phenyl)carbamate]	–	–	72	–	–	–

The next lines start with results.

Kd [2] [nM]	IC50 (human RORγt LBD) [nM]	inhibition at 6 µM (human RORγt LBD) [%]	Compound	IC50 ([1]; Homo sapiens, CD4+ T, 72 h) [nM]	IC50 ([1]; Homo sapiens, 72 h) [nM]	IC50 [1] [nM]
> 63000	270	–	CCN(CC)c1nc2ccc(C(O)(c3ccccn3)c3cncn3C)cc2c(C#N)c1Oc1ccccc1 (single isomer, unassigned) [Example 5c]	–	150	–
140	200	101	CCN(CC)c1nc2ccc(C(O)(c3ccccn3)c3cncn3C)cc2c(Cl)c1Oc1ccccc1 (stereo not shown) [Example 3b]	–	180	–
460	1100	–	CCN(CC)c1nc2ccc(C(O)(c3ccccn3)c3cncn3C)cc2c(Cl)c1Oc1ccccc1 (stereo not shown) [Example 3c]	–	–	–
–	870	102	CCN(CC)c1nc2ccc(C(O)(c3ccccn3)c3cncn3C)cc2c(C#N)c1Oc1ccccc1 (stereo not shown) [Example 5b]	–	–	–
